Columns and labels:
Type in all cases: cell-based
cmk = assay: In vitro ADC activity, AML cell lines, CellTiter-Glo (Example 20); details: 5 days
kasumi6 = assay: as above; details: kasumi6, 5 days
HCC2218 = assay: CellTiter-Glo proliferation assay (Example 6); details: HER2 Mcl-1 ADCs and payload P1, 5 days
Description: (§1) Mcl-1 ADCs were tested on nine endogenous cancer cell lines and one isogenic cell line engineered to overexpress a target of interest. Six targets were assessed: HER2, BCMA, CD38, CD48, CD79b, and CD33.
(§2) Cell lines • HER2: HCC1954 (ATCC No. CRL-2338 cultured in RPMI-1640+10% FBS) and HCC2218 (ATCC No. CRL-2343 cultured in RPMI-1640+10% FBS). • BCMA: NCI-H929 (ATCC No. CRL-9068 cultured in RPMI-1640+10% FBS+0.05 mM 2-mercaptoethanol). • CD38: A4-Fuk (JCRB No. JCRB0097 cultured in RPMI-1640+10% FBS) and KMS-21 BM (JCRB No. JCRB1185 cultured in RPMI-1640+10% FBS). • CD48: NCI-H929 (ATCC No. CRL-9068 cultured in RPMI-1640+10% FBS+0.05 mM 2-mercaptoethanol), OPM-2 (DSMZ No. ACC-50 cultured in RPMI-1640+10% FBS) and AMO1 (DSMZ No. ACC-538 cultured in RPMI-1640+20% FBS). • CD79b: RS4;11 (ATCC No. CRL-1873 cultured in RPMI-1640+10% FBS). • CD33: MOLM-13 (DSMZ No. ACC-554 cultured in RPMI-1640+10% FBS) and an isogenic cell line, AMO1-CD33 clone D2. AMO1 cell line was transfected to generate a stable AMO1 cell line expressing the exogenous protein of interest, CD33, AMO1-CD33 clone D2 (cultured in RPMI-1640+20% FBS).
(§3) The ability of Mcl-1 ADCs to inhibit cell proliferation and survival was assessed using a Promega CellTiter-Glo® proliferation assay. Cell lines were cultured in media optimal for their growth at 5% CO2, 37° C. in a tissue culture incubator. Prior to seeding for the proliferation assay, the cells were split at least 2 days before the assay to ensure optimal growth density. On the day of seeding, adherent cells were lifted off tissue culture flasks using 0.25% trypsin. Cell viability and cell density were determined using a cell counter (Vi-Cell XR Cell Viability Analyzer, Beckman Coulter). […] Cells were seeded at a density of 1,000 cells per well in 45 μl of standard growth media. Plates were incubated at 5% CO2, 37° C. overnight in a tissue culture incubator. The next day, free Mcl-1 payload (P1), targeting Mcl-1 ADCs, and non-targeting isotype ADCs were prepared at 10× in standard growth media. The prepared drug treatments were then added to the cells resulting in final concentrations of 0.0005-500 nM and a final volume of 50 μl per well. Each drug concentration was tested in quadruplets. Plates were incubated at 5% CO2, 37° C. for 5 days in a tissue culture incubator, after which cell viability was assessed through the addition of 25 μl of CellTiter Glo® (Promega, Cat. No. G7573), a reagent which lyses cells and measures total adenosine triphosphate (ATP) content. Plates were incubated at room temperature for 10 minutes to stabilize luminescent signals prior to reading using a luminescence reader (EnVision Multilabel Plate Reader, PerkinElmer). To evaluate the effect of the drug treatments, luminescent counts from wells containing untreated cells (100% viability) were used to normalize treated samples. A variable slope model was applied to fit a nonlinear regression curve to the data in GraphPad PRISM version 7.02 software. IC50 and Amax values were extrapolated from the resultant curves.

RS4;11 = assay: CellTiter-Glo proliferation assay (Example 6); details: CD79b Mcl-1 ADCs and payload P1, 5 days
Description: as §1, §2, §3

OPM-2 = assay: CellTiter-Glo proliferation assay (Example 6); details: CD48 Mcl-1 ADCs and payload P1, 5 days
Description: as §1, §2, §3

NCI-H929 = assay: CellTiter-Glo proliferation assay (Example 6); details: for Amax H929: in %; for IC50: Homo sapiens, NCI-H929, 120 h
Description: as §1, §2, §3

HCC1954 = assay: CellTiter-Glo proliferation assay (Example 6); details: HER2 Mcl-1 ADCs and payload P1, 5 days
Description: as §1, §2, §3

MOLM-13 = assay: CellTiter-Glo proliferation assay (Example 6); details: CD33 Mcl-1 ADCs and payload P1, 5 days
Description: as §1, §2, §3

[1] = BCMA Mcl-1 ADCs (Table 29) and payload P1, 5 days
[2] = CD48 Mcl-1 ADCs (Table 25) and payload P1, 5 days

IC50 (HCC2218; Homo sapiens, HCC2218, 120 h): 14.1 nM
IC50 (RS4;11; Homo sapiens, RS4-11, 120 h, read-out: IC50 (nM) RS, 411): 0.299 nM
IC50 (NCI-H929; [1]): 5.61 nM
IC50 (NCI-H929; [2]): 0.394 nM
IC50 (HCC1954; Homo sapiens, HCC1954, 120 h): 63.5 nM
IC50 (MOLM-13; Homo sapiens, MOLM-13, 120 h, read-out: IC50 (nM) MOLM13): 2.44 nM
SMILES: COc1ccccc1-c1nccc(COc2ccccc2C[C@@H](Oc2ncnc3sc(-c4ccc(F)cc4)c(-c4ccc(OCCN5CCN(C)CC5)c(Cl)c4C)c23)C(=O)O)n1 [P1, (2R)-2-[5-[3-chloro-2-methyl-4-[2-(4-methylpiperazin-1-yl)ethoxy]phenyl]-6-(4-fluorophenyl)thieno[2,3-d]pyrimidin-4-yl]oxy-3-[2-[[2-(2-methoxyphenyl)pyrimidin-4-yl]methoxy]phenyl]propanoic acid]
Amax (cmk; unit assumed): 100%
GI50 (cmk; Homo sapiens, 120 h): > 10 µM
GI50 (kasumi6; 120 h): 4 nM
Amax (kasumi6; in % (unit assumed)): −96
Amax HCC2218 (HCC2218; in % (unit assumed)): 100.40
Amax RS; 411 (RS4;11): 132.40
Amax OPM2 (OPM-2): 22.97
IC50 (OPM-2; Homo sapiens, OPM-2, 120 h, read-out: IC50 (nM) OPM2): 0.136 nM
Amax H929 (NCI-H929; [1]): 89.16
Amax H929 (NCI-H929; [2]): 25.79
Amax HCC1954 (HCC1954; unit assumed): 64.8%
Amax MOLM13 (MOLM-13): 128.80

— US20230092679A1, “MCL-1 INHIBITOR ANTIBODY-DRUG CONJUGATES AND METHODS OF USE” (NOVARTIS AG, priority 2019, published 2023)
